Experimental findings from patent publication US20260356860A1, “2-SUBSTITUTED 3,4A,5,7,8,8A-HEXAHYDRO-4H-THIOPYRANO[4,3-DJPYRIMIDIN-4-ONES FOR WOUND TREATMENT” (priority 2022, published 2026) are described below.

In one assay the test system is closed excisional wounds. Briefly: Closed excisional wound healing study (cosmesis). It counts as in vivo, Yucatan Miniature Swine. The settings on record: of 8 wounds. As for the experimental part: (§1) The test composition in the closed excisional wound and burn studies for compounds without GO-HA (no GO-HA added) was a mixture with an overall concentration of 0.20 to 0.25 mg/mL of the respective compound in serum formulation as follows: compound (4 mg), butylene glycol (0.80 mL), polysorbate 20 (0.40 mL), ultra pure water (18 mL), and hydroxypropyl cellulose (0.12 g).
(§2) The test composition in the closed excisional wound and burn studies for compounds with GO-HA (Compound+GO-HA) was a mixture with an overall concentration of 1.0 mg/mL of the respective compound and 0.5 mg/mL of GO-HA in serum formulation as follows: compound (18 mg), PEG 400 (0.8 mL), GO-HA (9 mg), ultra pure water (18 mL), and hydroxypropyl cellulose (0.12 g).
The frequency of wound creation was once on dosing phase day 1. The frequency of dose administration was once on dosing phase days 1, 3, 5, 7, 9, 11, 13, 15, 17, 19, and 21. Each animal had twelve 5 cm×0.5 cm full thickness fusiform(spindle shaped) wound sites, spaced at least 3 cm apart to the appropriate depth and in a staggered pattern to reduce central cross-sectional wound tension.
Once […] was obtained, each wound was sutured closed using non-absorbable suture, the simple interrupted closure technique is shown in FIG. 13. Each wound had 5 simple interrupted sutures with a 0.5 to 1 cm interval between sutures.
Compounds of Formula (I) and controls were applied directly to the wound site in a generous layer evenly over the sutured wound using a sterile applicator as needed. After application, each wound site was covered with suitable sterile dressing materials.
Dressings were changed every dosing phase day at day 3, 5, 7, 9, 11, 13, 15, 17, 19, and 21, and sutures were removed on dosing phase day 15. After dose administration on each dosing day, the wounds were covered with dressings as described above.
All animals were scheduled to be terminated on dosing phase day 22. At termination, the entire wound site (dose site) was collected separately for each site and included at least 0.5 cm margin skin and a depth below the wound bed. […]

Assay [1] deals with Full-thickness, 3rd degree burn wounds. Briefly: 3rd degree burn wound healing study (60-day). The settings on record: for burn wound healing rate versus saline control: about day 16 to day 30; for burn wound histology (H&E) versus saline and GO-HA: improved organized reticular collagen and rete ridge formation. In kind it is in vivo, Yucatan minipig. As for the experimental part: as §1, §2
Full-thickness 60-day burn wound healing study. Full-thickness, 3rd degree burn wounds of 3×3 cm^2 size were created on the back of the Yucatan minipig (5 wounds on each side of the spine, 10 total per swine) by using a brass cylinder (circular cross-section, 3 cm diameter) that was preheated in an oven at 100° C. and applied to the dorsal skin with light pressure for 30 seconds. Debridement of the wounds occurred day 7 post-dose. Compounds were dosed topically three times a week (0.24 mL) for thirty days. At 30 day time-point, the wounds were photographed once a week and NO dosing of compounds conducted from day 31-60. On day 60 animals were sacrificed and tissue prepared for analysis.

Assay [2] concerns full thickness open excisional wounds. Briefly: Full thickness open excisional wound healing study. The settings on record: day 3 to day 22. In kind it is in vivo, Yucatan Miniature Swine. On the procedure: (§3) A 21-day full thickness open excisional wound healing study was conducted on Yucatan™ Miniature Swine (Sinclair BioResources, Auxvasse, Missouri, USA) to evaluate the efficacy of healing and local tissue reaction of compounds of Formula (I). Compounds and controls were topically administered on full thickness open excisional wounds once every other day (total 11 doses).
The negative control for this study was saline (0.9%). The tes compositions for these studies are described as follows.
The test composition in the full thickness open excisional wound studies for compounds without GO-HA (no GO-HA added) was a mixture with an overall concentration of 0.25 to 0.27 mg/mL of the respective compound in serum formulation as follows: compound (10 mg), butylene glycol (1.80 mL), polysorbate 20 (1.80 mL), phosphatidyl choline (0.44 g), ethanol (1.80 mL), ultra pure water (30 mL), and hydroxypropyl cellulose (0.285 g).
The test composition in the full thickness open excisional wounds studies for compounds with GO-HA (Compound+GO-HA) was a mixture with an overall concentration of 1.0 mg/mL of the respective compound and 1.0 mg/mL of GO-HA in serum formulation as follows: compound (35 mg), butylene glycol (1.8 mL), polysorbate 20 (1.8 mL), phosphotidyl choline (0.44 g), ethanol (1.8 mL), GO-HA (35 mg), ultra pure water (30 mL), and hydroxypropyl cellulose (0.285 g). […]

In assay [3] the test system is full thickness excisional wounds. Briefly: Rete ridge formation (full thickness wound healing study). In kind it is in vivo, Yucatan Miniature Swine. The settings on record: rete ridge/mm. As for the experimental part: as §3
Additional tests were performed including elasticity (Table 12); max force (Table 13); tensile strength (strain) (Table 14); energy peak (Table 15); rete-ridge formation; and collagen organization (plane polarized light) (FIG. 24) of the healed wound sites, described as follows.
Improved rete ridge formation is described as epithelial extensions that project into the underlying connective tissue in both skin and mucous membrances—improved rete ridge formation is a sign of tissue regeneration rather than fibrosis/scarring (reduced rete ridge formation).

A further assay concerns 8 mm ear punch wound. Briefly: Rabbit ear punch: rate of ear closure. In kind it is in vivo. Conditions: after day 4; phospholipid spray. On the procedure: Compounds of Formula (I) were tested and compared to saline control in elastic cartilage regeneration tests. Rabbit ears were punched through and through with an 8 mm punch. 4 holes were punched in each ear of the specimen (four positions L1, L2, L3, and L4 in the left ear and four positions R5, R6, R7, and R8 in right ear). Saline was applied via a spray on the control specimen, Compound 8 was applied via a phospholipid spray on another specimen, and Compound 18 was applied via a phospholipid spray on yet another specimen. The phospholipid spray contained compound (45 mg), butylene glycol (2 mL), polysorbate 20 (2 mL), phosphotidyl choline (0.5 g), ethanol (2 mL), and ultra pure water (40 mL).
FIG. 4 provides photographs of the wounds after treatment with saline, compound 8, or compound 18 on Days 0 and 23. Ear punch area related to wound closure was measured at 2- to 3-day intervals from day 0 to day 39.

For the molecule `O=c1[nH]c(-c2ccc(B(O)O)cc2)nc2c1CSCC2` [Compound 1, (4-(4-oxo-3,5,7,8-tetrahydro-4H-thiopyrano[4,3-d]pyrimidin-2-yl)phenyl)boronic acid], the “wounds with improved cosmesis / visible appearance than the control” value in the assay with closed excisional wounds is listed as 7 of 8.

`O=c1[nH]c(-c2ccc(-c3ccc(Br)nc3)cc2)nc2c1CSCC2` [Compound 7, 2-(4-(6-bromopyridin-3-yl)phenyl)-3,5,7,8-tetrahydro-4H-thiopyrano [4,3-d]pyrimidin-4-one]: in assay [1], the “burn wound healing rate versus saline control” value is on record as “statistically significant improved burn wound healing rates”; the “burn wound histology (H&E) versus saline and GO-HA” value was “promoted regeneration of tissue (improved organized reticular collagen and rete ridge formation) and reduced scar formation”. Also, the “wound healing throughout the entire test” value in assay [2] is “improved wound healing throughout the entire test”. Also, the “rete ridge formation compared to the saline control” value in assay [3] is “improved wound healing compared to the saline control (rete ridge/mm)”.

In the case of `CC(C)(OCCO)c1ccc(-c2nc3c(c(=O)[nH]2)CSCC3)cc1` [Compound 8, 2-(4-(2-(2-hydroxyethoxy)propan-2-yl)phenyl)-3,5,7,8-tetrahydro-4H-thiopyrano[4,3-d]pyrimidin-4-one], in assay [1], the “burn wound healing rate versus saline control” value is reported as “statistically significant improved burn wound healing rates”; the “burn wound histology (H&E) versus saline and GO-HA” value was “promoted regeneration of tissue (improved organized reticular collagen and rete ridge formation) and reduced scar formation”. Further, the “wound healing throughout the entire test” value in assay [2] was “improved wound healing throughout the entire test”. In addition, the “rete ridge formation compared to the saline control” value in assay [3] is recorded as “improved wound healing compared to the saline control (rete ridge/mm)”. Moreover, the “rate of ear closure versus control” value in the assay with 8 mm ear punch wound is “improved the rate of ear closure over the control”. Moreover, in the assay on closed excisional wounds, the “wounds with improved cosmesis / visible appearance than the control” value is 2 of 8.

Turning to `O=c1[nH]c(-c2ccc(-c3ccc(B(O)O)cc3)cc2)nc2c1CSCC2` [Compound 10, (4′-(4-oxo-3,5,7,8-tetrahydro-4H-thiopyrano[4,3-d]pyrimidin-2-yl)-[1,1′-biphenyl]-4-yl)boronic acid], the “wounds with improved cosmesis / visible appearance than the control” value in the assay with closed excisional wounds was 3 of 8.

Turning to `COC(=O)NCCOC(C)(C)c1ccc(-c2nc3c(c(=O)[nH]2)CSCC3)cc1` [Compound 18, methyl (2-((2-(4-(4-oxo-3,5,7,8-tetrahydro-4H-thiopyrano[4,3-d]pyrimidin-2-yl)phenyl)propan-2-yl)oxy)ethyl)carbamate], the “rate of ear closure versus control” value in the assay with 8 mm ear punch wound is “improved the rate of ear closure over the control”.
